Source: US20200347043A1, “MODULATORS OF THE INTEGRATED STRESS PATHWAY” (Calico Life Sciences LLC, priority 2019, published 2020)

Tested on: HEK293T cells carrying the ATF4 luciferase reporter
Test: ATF4-Luc assay (in vitro model of VWMD)
Format: cell-based, human
Settings: Homo sapiens, HEK-293T, 1 μg/mL tunicamycin, 7 hours, One Glo luminescence
Summary of the method: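 Tunicamycin (1 μg/mL) stress with co-added compound for 7 hours in HEK293T cells stably carrying an ATF4 5′-UTR–luciferase reporter. EC50 values come from the luminescent signal (One Glo).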

First: O=C(CO[C@H]1C[C@@H](OC(F)(F)F)C1)NC12CC(NC(=O)[C@@H]3C[C@H](O)c4cc(Cl)ccc4O3)(C1)C2 [Compound 295, (2S,4S)-6-chloro-4-hydroxy-N-[3-(2-{[cis-3-(trifluoromethoxy)cyclobutyl]oxy}acetamido)bicyclo[1.1.1]pentan-1-yl]-3,4-dihydro-2H-1-benzopyran-2-carboxamide]
Second: O=C(NC12CC(c3csc(O[C@H]4C[C@@H](OC(F)(F)F)C4)n3)(C1)C2)[C@H]1C[C@@H](O)c2cc(Cl)ccc2O1 [Compound 300, (2R,4R)-6-chloro-4-hydroxy-N-[3-(2-{[cis-3-(trifluoromethoxy)cyclobutyl]oxy}-1,3-thiazol-4-yl)bicyclo[1.1.1]pentan-1-yl]-3,4-dihydro-2H-1-benzopyran-2-carboxamide]
The EC50 of the first is lower: 10 to 50 nM for the first, 50 to 250 nM for the second.

First: O=C(NC12CCC(c3ncc([C@H]4C[C@@H](OC(F)(F)F)C4)o3)(CC1)CC2)[C@H]1C[C@@H](O)c2cc(Cl)ccc2O1 [Compound 297, (2R,4R)-6-chloro-4-hydroxy-N-(4-{5-[cis-3-(trifluoromethoxy)cyclobutyl]-1,3-oxazol-2-yl}bicyclo[2.2.2]octan-1-yl)-3,4-dihydro-2H-1-benzopyran-2-carboxamide]
Second: O=C(NC12CC(Oc3nc([C@H]4C[C@@H](OC(F)(F)F)C4)cs3)(C1)C2)[C@H]1C[C@@H](O)c2cc(Cl)ccc2O1 [Compound 301, (2R,4R)-6-chloro-4-hydroxy-N-[3-({4-[cis-3-(trifluoromethoxy)cyclobutyl]-1,3-thiazol-2-yl}oxy)bicyclo[1.1.1]pentan-1-yl]-3,4-dihydro-2H-1-benzopyran-2-carboxamide]
The EC50 of the first is lower: 10 to 50 nM for the first, 500 to 2000 nM for the second. The first is the more potent here.

Compared with `O=C(NC12CC(c3ccn([C@H]4C[C@@H](OC(F)(F)F)C4)n3)(C1)C2)[C@H]1C[C@@H](O)c2cc(Cl)ccc2O1` [Compound 298, (2R,4R)-6-chloro-4-hydroxy-N-(3-{1-[cis-3-(trifluoromethoxy)cyclobutyl]-1H-pyrazol-3-yl}bicyclo[1.1.1]pentan-1-yl)-3,4-dihydro-2H-1-benzopyran-2-carboxamide], `O=C(NC12CC(n3cc(-c4ccc(OC(F)(F)F)cc4)cn3)(C1)C2)[C@H]1C[C@@H](O)c2cc(Cl)ccc2O1` [Compound 302, (2R,4R)-6-chloro-4-hydroxy-N-(3-{4-[4-(trifluoromethoxy)phenyl]-1H-pyrazol-1-yl}bicyclo[1.1.1]pentan-1-yl)-3,4-dihydro-2H-1-benzopyran-2-carboxamide] is lower in EC50: 50 to 250 nM for the first, < 10 nM for the second.

Compared with `O=C(N[C@H]1CC[C@H](N2CCN(c3cnc(C(F)F)cn3)C2=O)CC1)[C@H]1C[C@@H](O)c2cc(Cl)ccc2O1` [Compound 303, (2R,4R)-6-chloro-N-[trans-4-{3-[5-(difluoromethyl)pyrazin-2-yl]-2-oxoimidazolidin-1-yl}cyclohexyl]-4-hydroxy-3,4-dihydro-2H-1-benzopyran-2-carboxamide], `O=C(NC12CC(N3CC(c4ccc(Cl)cc4)CC3=O)(C1)C2)[C@H]1C[C@@H](O)c2cc(Cl)ccc2O1` (stereo partly drawn) [Compound 307, (2R,4R)-6-chloro-N-{3-[4-(4-chlorophenyl)-2-oxopyrrolidin-1-yl]bicyclo[1.1.1]pentan-1-yl}-4-hydroxy-3,4-dihydro-2H-1-benzopyran-2-carboxamide] is lower in EC50: 50 to 250 nM for the first, < 10 nM for the second.

`O=C(N[C@H]1C[C@H]2C[C@@H]1C[C@@H]2n1cnc(-c2ccc(F)c(F)c2)c1)[C@H]1C[C@@H](O)c2cc(Cl)ccc2O1` [Compound 304, (2R,4R)-6-chloro-N-{(1R,2S,4R,5S)-5-[4-(3,4-difluorophenyl)-1H-imidazol-1-yl]bicyclo[2.2.1]heptan-2-yl}-4-hydroxy-3,4-dihydro-2H-1-benzopyran-2-carboxamide] and `O=C(NC12CC(c3cnc(-c4ccc(Cl)c(F)c4)o3)(C1)C2)[C@H]1C[C@@H](O)c2cc(Cl)ccc2O1` [Compound 305, (2R,4R)-6-chloro-N-{3-[2-(4-chloro-3-fluorophenyl)-1,3-oxazol-5-yl]bicyclo[1.1.1]pentan-1-yl}-4-hydroxy-3,4-dihydro-2H-1-benzopyran-2-carboxamide] cannot be ordered by EC50: < 10 nM for the first, < 10 nM for the second.
